Test results published in patent publication US6864275B1, “Compounds and methods for use thereof in the treatment of cancer” (UAF Technologies and Research, LLC, priority 1997, dated 2005).

Experiments:
B16 murine melanoma [1] = test: MTT cell growth inhibition, B16 melanoma cells; type: cell-based; settings: 3-6 days incubation
Protocol: (§1) The following cell culture tests were performed to test the toxicity of benzimidazole derivative compounds of the present invention on colon and melanoma tumor cells. The viability of the cells were tested by looking at MTT (3-[4,5-dimethylthiazol-2-yl]-2,5-diphenyltetrazolium bromide) reduction. MTT assay is a well known measure of cell viability.
(§2) The colon tumor cells (HT29) and the melanoma cells (B16 murine melanoma) were seeded (1000-2000 cells) into each well of a 96-well microtiter plate and allowed to grow. Twenty-four hours later, increasing concentrations of each benzimidazole derivative were added to the plates and the cells were allowed to incubate for 3-6 days in the presence of the drugs. MTT reagent was then added to the wells and allowed to incubate for 4 hours at 37° C., after which the formazan metabolite was solubilized with acidic isopropanol and the absorbance was read. Experimental controls included blank wells to which no cells were added (zero point of formazan absorbance) and control wells to which no drug was added (highest level of formazan absorbance). Each drug concentration was tested in duplicate and the resulting average absorbance was plotted against drug concentration using the EZ-ED50 computer program on a personal computer interfaced to the microtiter plate reader. […] The IC50 value is then derived from this equation by EZ-ED50.

colon tumor cells (HT29) = test: MTT cell growth inhibition, HT29 colon tumor cells; type: cell-based; settings: 3-6 days incubation, read-out: IC50 Human Colon Carcinoma
Protocol: as §1, §2

Tubulin = test: Microtubule inhibition assay (tubulin polymerization, absorbance at 350 nm); type: biochemical, bovine; settings: compound at 2 μM, after 30 minutes
Protocol: The benzimidazole derivatives of this invention were evaluated for their ability to inhibit formation of microtubules, following the procedure of Luduena, R. F. and M. C. […] Microtubule polymerization was followed by performing the reaction in a cuvette and monitoring UV absorbance at 350 nm, allowing direct visualization of the time course of the polymerization.

B16 murine melanoma [2] = test: In vivo B16 murine melanoma tumor model; design: species or system B6D2F1 mice; settings: qd × 5; for T/C (%): mean survival treated/control; for # of Survivors: survived at least 60 days
Protocol: B6D2F1 mice received interperitoneally (i.p.) inocula of B16 murine melanoma brei prepared from B16 tumors growing s.c. in mice (Day 0). On Day 1, mice were randomized into groups, with 20 mice in the control group and 10 mice in each treated group (except there were 8 mice in selected groups given compound 3-13. Treatment with drugs or vehicle control was started on Day 1.
The mean survival times of all groups were calculated and results were expressed as mean survival of treated mice/mean survival of control mice (T/C)×100%. A “T/C” value of 150 means that the mice in the treated group lived 50% longer than those of the control group; this is sometimes referred to as the increase in life span, or ILS value.
Mice that survived for at least 60 days were considered to be long-term survivors, or cures, in the B16 model. The universally accepted cut-off for activity in this model, which has been used for years by the NCI, is T/C=125. Conventional use of B16 over the years has set the following levels of activity:
T/C>300, with long-term survivors=excellent, curative activity.

SMILES	IC50 (B16 murine melanoma [1]) [µM]	IC50 (colon tumor cells (HT29)) [µM]	Tubulin Polymerization Inhibition, % Inhibition (Tubulin)	further results
COC(=O)Nc1nc2ccc(C(=O)NCCN3CCOCC3)cc2[nH]1 [2-2]	80.5	121	11%	–
CCC(C)NC(=O)c1ccc2nc(NC(=O)OC)[nH]c2c1 (stereo not drawn) [2-3]	2.9	1.6	26%	–
COC(=O)Nc1nc2ccc(C(=O)NCC3CCCO3)cc2[nH]1 (stereo not drawn) [2-4]	47.2	35.7	36%	–
COC(=O)Nc1nc2ccc(C(=O)NCCC(C)C)cc2[nH]1 [2-5]	5.9	5.1	37%	–
COC(=O)Nc1nc2ccc(C(=O)NCCC(C)(C)C)cc2[nH]1 [2-7]	0.41	0.42	43%	–
CCC(C)CNC(=O)c1ccc2nc(NC(=O)OC)[nH]c2c1 (stereo not drawn) [2-8]	5	4.9	none	–
CCC(CC)NC(=O)c1ccc2nc(NC(=O)OC)[nH]c2c1 [2-9]	0.37	228	16%	–
COC(=O)Nc1nc2ccc(C(=O)NCCCN(C)C)cc2[nH]1 [2-10]	553	447	5%	–
COCCNC(=O)c1ccc2nc(NC(=O)OC)[nH]c2c1 [2-11]	30.5	17.1	19%	–
COC(=O)Nc1nc2ccc(C(=O)Nc3ccccc3O)cc2[nH]1 [2-13]	2.8	2.3	27%	–
COC(=O)Nc1nc2ccc(C(=O)Nc3cc(OC)c(OC)c(OC)c3)cc2[nH]1 [2-15]	6.1	4.2	5%	–
CCCCN(C)C(=O)c1ccc2nc(NC(=O)OC)[nH]c2c1 [2-17]	4.6	2.5	none	–
CCCN(CCC)C(=O)c1ccc2nc(NC(=O)OC)[nH]c2c1 [2-18]	9.4	3.1	42%	–
COC(=O)Nc1nc2ccc(C(=O)OCCOCCCl)cc2[nH]1 [3-2]	0.082	0.036	14%	–
C=CCOC(=O)c1ccc2nc(NC(=O)OC)[nH]c2c1 [3-3]	0.22	0.059	42%	–
C=CCCOC(=O)c1ccc2nc(NC(=O)OC)[nH]c2c1 [3-6]	0.044	0.0076	12%	# of Toxic Deaths (B16 murine melanoma [2]; 10 mg/kg/i.v): 0; Weight Change (Day 12) (B16 murine melanoma [2]; 10 mg/kg/i.v): +8.7%; T/C (%) (B16 murine melanoma [2]; 10 mg/kg/i.v): 107%; # of Survivors (B16 murine melanoma [2]; 10 mg/kg/i.v): 0; # of Toxic Deaths (B16 murine melanoma [2]; 20 mg/kg/i.v): 0; Weight Change (Day 12) (B16 murine melanoma [2]; 20 mg/kg/i.v): +6.5%; T/C (%) (B16 murine melanoma [2]; 20 mg/kg/i.v): 99%; # of Survivors (B16 murine melanoma [2]; 20 mg/kg/i.v): 0; # of Toxic Deaths (B16 murine melanoma [2]; 50 mg/kg/i.p): 0; Weight Change (Day 12) (B16 murine melanoma [2]; 50 mg/kg/i.p): +9.4%; T/C (%) (B16 murine melanoma [2]; 50 mg/kg/i.p): 119%; # of Survivors (B16 murine melanoma [2]; 50 mg/kg/i.p): 0; # of Toxic Deaths (B16 murine melanoma [2]; 100 mg/kg/i.p): 0; Weight Change (Day 12) (B16 murine melanoma [2]; 100 mg/kg/i.p): +8.9%; T/C (%) (B16 murine melanoma [2]; 100 mg/kg/i.p): 118%; # of Survivors (B16 murine melanoma [2]; 100 mg/kg/i.p): 0
COC(=O)Nc1nc2ccc(C(=O)OCc3ccccc3)cc2[nH]1 [3-7]	0.085	0.033	26%	–
COC(=O)Nc1nc2ccc(C(=O)OCCCCl)cc2[nH]1 [3-9]	0.21	0.054	none	–
COC(=O)Nc1nc2ccc(C(=O)OCC=CCO)cc2[nH]1 [3-10]	1	0.6	none	–
COC(=O)Nc1nc2ccc(C(=O)OCCCCCO)cc2[nH]1 [3-11]	248	107	50%	–

SMILES	IC50 (B16 murine melanoma [1]) [µM]	IC50 (colon tumor cells (HT29)) [µM]	Tubulin Polymerization Inhibition, % Inhibition (Tubulin)	further results
COC(=O)Nc1nc2ccc(C(=O)OCC(F)(F)C(F)(F)F)cc2[nH]1 [3-14]	588	314	23%	–
COC(=O)Nc1nc2ccc(C(=O)OC(CF)CF)cc2[nH]1 [3-15]	0.94	0.61	45%	–
COC(=O)Nc1nc2ccc(C(=O)OC(C)C3CC3)cc2[nH]1 (stereo not drawn) [3-16]	0.062	0.03	44%	–
COC(=O)Nc1nc2ccc(C(=O)OCCF)cc2[nH]1 [3-17]	0.97	0.3	8%	–
COC(=O)Nc1nc2ccc(C(=O)OC(CBr)CBr)cc2[nH]1 [3-18]	1.2	2.1	none	–
COC(=O)Nc1nc2ccc(C(=O)OCCC(C)CC(C)(C)C)cc2[nH]1 (stereo not drawn) [3-20]	< 0.001	0.013	35%	–
COC(=O)Nc1nc2ccc(C(=O)OCCC(C)CCC=C(C)C)cc2[nH]1 (stereo not drawn) [3-21]	0.077	0.046	2%	–
COC(=O)Nc1nc2c(OC(=O)CC(C)CC(C)(C)C)cccc2[nH]1 (stereo not drawn) [Cpd. No. 1-1]	20.1	15.8	38%	–
COC(=O)Nc1nc2c(OC(=O)c3cc(OC)c(OC)c(OC)c3)cccc2[nH]1 [Cpd. No. 1-2]	14	26.3	35%	–
CCN(CC)CCCNC(=O)c1ccc2nc(NC(=O)OC)[nH]c2c1 [Cpd. No. 2-1]	530	398	24%	–
COC(=O)Nc1nc2ccc(C(=O)NC(C)CC(C)C)cc2[nH]1 (stereo not drawn) [Cpd. No. 2-6]	0.84	0.5	12%	–
COC(=O)Nc1nc2ccc(C(=O)NNc3ccccc3)cc2[nH]1 [Cpd. No. 2-12]	271	25.4	50%	–
COC(=O)Nc1nc2ccc(C(=O)NCCN(C)C)cc2[nH]1 [Cpd. No. 2-14]	403	158	none	–
COC(=O)Nc1nc2ccc(C(=O)N(C)C3CCCCC3)cc2[nH]1 [Cpd. No. 2-16]	0.32	0.23	39%	–
CCOCCOCCOC(=O)c1ccc2nc(NC(=O)OC)[nH]c2c1 [Cpd. No. 3-4]	0.084	0.027	12%	–
COC(=O)Nc1nc2ccc(C(=O)OCCOCCO)cc2[nH]1 [Cpd. No. 3-5]	2.6	–	10%	–
COC(=O)Nc1nc2ccc(C(=O)OCCN(C)C)cc2[nH]1 [Cpd. No. 3-8]	70.4	48.6	none	–
COC(=O)Nc1nc2ccc(C(=O)OC(CCl)CCl)cc2[nH]1 [Cpd. No. 3-12]	0.99	2.1	11%	–
COC(=O)Nc1nc2ccc(OC(=O)c3cc(OC)c(OC)c(OC)c3)cc2[nH]1 [Cpd. No. 4-1]	0.25	0.17	2%	–
COC(=O)Nc1nc2ccc(NC(=O)CC(C)CC(C)(C)C)cc2[nH]1 (stereo not drawn) [Cpd. No. 5-1]	6.6	7	none	–
